From ChEMBL document CHEMBL4616661, “Sesquiterpenoids from Cultures of the Basidiomycetes Irpex lacteus” (J Nat Prod, 2020)
pIC50: −log10 of the molar value. Active and inactive are the calls of the source. The calls are words filed in the database; no cut-off is given here.

Legend:
Assay type in all cases: functional, cell-based
[1] = tested on: SW480; experiment: Cytotoxicity against human SW480 cells assessed as reduction in cell viability at 40 uM after 48 hrs by MTT assay
[2] = tested on: RAW264.7; experiment: Inhibition of NO production in mouse RAW264.7 macrophages at 40 uM incubated for 18 hrs by Griess reagent based assay
[3] = tested on: SMMC-7721; experiment: Cytotoxicity against human SMMC7721 cells assessed as reduction in cell viability at 40 uM after 48 hrs by MTT assay
[4] = tested on: HL-60; experiment: Cytotoxicity against human HL60 cells assessed as reduction in cell viability at 40 uM after 48 hrs by MTT assay
[5] = tested on: MCF7; experiment: Cytotoxicity against human MCF7 cells assessed as reduction in cell viability at 40 uM after 48 hrs by MTT assay
[6] = tested on: A549; experiment: Cytotoxicity against human A549 cells assessed as reduction in cell viability at 40 uM after 48 hrs by MTT assay
[7] = tested on: HL-60; experiment: Cytotoxicity against human HL60 cells assessed as reduction in cell viability up to 40 uM after 48 hrs by MTT assay
[8] = tested on: A549; experiment: Cytotoxicity against human A549 cells assessed as reduction in cell viability up to 40 uM after 48 hrs by MTT assay
[9] = tested on: SW480; experiment: Cytotoxicity against human SW480 cells assessed as reduction in cell viability up to 40 uM after 48 hrs by MTT assay
[10] = tested on: SMMC-7721; experiment: Cytotoxicity against human SMMC7721 cells assessed as reduction in cell viability up to 40 uM after 48 hrs by MTT assay
[11] = tested on: MCF7; experiment: Cytotoxicity against human MCF7 cells assessed as reduction in cell viability up to 40 uM after 48 hrs by MTT assay
[12] = tested on: B-cell line; experiment: Immunosuppressive activity in BALB/c mouse B cells assessed as inhibition of LPS-induced cell proliferation by measuring reduction in uptake of [3H]-thymidine after 8 hrs by beta scintillation counting method
[13] = tested on: T-cell; experiment: Immunosuppressive activity in BALB/c mouse T cells assessed as inhibition of ConA-induced cell proliferation by measuring reduction in uptake of [3H]-thymidine after 8 hrs by beta scintillation counting method
[14] = tested on: RAW264.7; experiment: Inhibition of NO production in mouse RAW264.7 macrophages incubated for 18 hrs by Griess reagent based assay; conditions: RAW264.7, 18 h

pIC50 [14]	SMILES	Activity [1]	inhibition [2]	Activity [3]	Activity [4]	Activity [5]	Activity [6]	Activity [7]	Activity [8]	Activity [9]	Activity [10]	Activity [11]	pIC50 [12]	pIC50 [13]
	C[C@H]1[C@H]2CC(C)(C)C[C@@H]2C2=C(C[C@@H]1O)C(=O)OC2	inactive	inactive	inactive	inactive	inactive	inactive							
	C[C@H]1CCC2=C(COC2=O)[C@@H]2CC(C)(C)[C@H](O)[C@@H]12		inactive					Active	Active	Active	Active	Active		
	Cc1cc2c(cc1O)C1=C(CC[C@H]2C)C(=O)OC1	inactive	inactive	inactive	inactive	inactive	inactive						4.87	4.78
	C[C@@H]1C[C@H](O)C2=C(COC2=O)[C@]23O[C@H]2C(C)(C)C[C@]13O	inactive	inactive	inactive	inactive	inactive	inactive							
	C[C@@H]1C[C@H](O)C2=C(COC2=O)C2=C[C@](C)(CO)C[C@@H]21		inactive					Active	Active	Active	Active	Active		
	C[C@H]1CCC2=C(COC2=O)[C@@]2(O)CC(C)(C)C[C@@H]12		inactive					Active	Active	Active	Active	Active		
	C[C@H]1C[C@@H](O)C2=C(COC2=O)[C@@H]2CC(C)(C)C[C@@H]12	inactive	inactive	inactive	inactive	inactive	inactive							
	C[C@@H]1C[C@H](O)C2=C(COC2=O)C2=CC(C)(C)C[C@@H]21		inactive					Active	Active	Active	Active	Active		
	Cc1ccc2c(c1)[C@H](C)C[C@H](O)[C@@H]1C(=O)OC[C@@H]21	inactive	inactive	inactive	inactive	inactive	inactive						4.65	
4.64	C[C@@H]1CC[C@H]2C(C(=O)O)=C[C@@H]3C[C@@](C)(C(=O)O)C[C@@]132	inactive		inactive	inactive	inactive	inactive							
	C[C@@H]1C[C@H](O)C2=C(COC2=O)[C@]23O[C@H]2C(C)(C)C[C@H]13	inactive	inactive	inactive	inactive	inactive	inactive							
